# Measurements taken from patent US10966426B2, “Herbicidal compositions comprising phenylpyrimidines” (BASF SE, priority 2016, dated 2021).
# Tests used:
# Type in all cases: in vivo
# Lolium multiflorum = test: greenhouse pre-emergence treatment, LOLMU; details: Lolium multiflorum, 480 h, 20 DAT
# Source text: (§1) The culture containers used were plastic pots containing loamy sand with approximately 3.0% of humus as substrate. The seeds of the test plants were sown separately for each species.
# (§2) For the pre-emergence treatment, the active compounds, suspended or emulsified in water, were applied directly after sowing by means of finely distributing nozzles. The containers were irrigated gently to promote germination and growth and subsequently covered with transparent plastic hoods until the plants had rooted. This cover caused uniform germination of the test plants unless this was adversely affected by the active compounds.
# (§3) Depending on the species, the plants were kept at 10-25° C. and 20-35° C., respectively.
# (§4) The test period extended over 2 to 4 weeks. During this time, the plants were tended and their response to the individual treatments was evaluated.
# (§5) Evaluation was carried out using a scale from 0 to 100. 100 means no emergence of the plants, or complete destruction of at least the above-ground parts, and 0 means no damage or normal course of growth. A good herbicidal activity is given at values of at least 70, and very good herbicidal activity is given at values of at least 85.
# (§6) The respective stated components A and B, and if appropriate, C were formulated as a 10% by weight strength emulsion concentrate and, with addition of the amount of solvent system, introduced into the spray liquor used for applying the active compound. In the examples, the solvent used was water.
# (§7) In the examples below, using the method of S. R. Colby (1967) “Calculating synergistic and antagonistic responses of herbicide combinations”, Weeds 15, p. 22ff., the value E, which is expected if the activity of the individual active compounds is only additive, was calculated. E=X+Y−(X·Y/100) where X=effect in percent using herbicide A at an application rate a; • Y=effect in percent using herbicide B at application rate b; • E=expected effect (in %) of herbicide A+herbicide B at application rates a+b.
# Alopecurus myosuroides = test: greenhouse pre-emergence treatment, ALOMY
# Source text: as §1, §2, §3, §4, §5, §6, §7
# Stellaria media = test: greenhouse pre-emergence treatment, STEME; details: 20 DAT
# Source text: as §1, §2, §3, §4, §5, §6, §7
# Avena fatua = test: greenhouse pre-emergence treatment, AVEFA; details: 20 DAT
# Source text: as §1, §2, §3, §4, §5, §6, §7
# Papaver rhoeas = test: greenhouse pre-emergence treatment, PAPRH; details: 20 DAT
# Source text: as §1, §2, §3, §4, §5, §6, §7
# Galium aparine [1] = test: greenhouse pre-emergence treatment, GALAP
# Source text: as §1, §2, §3, §4, §5, §6, §7
# Brachiaria decumbens = test: greenhouse pre-emergence treatment, BRADC; details: Urochloa decumbens, 480 h, 20 DAT
# Source text: as §1, §2, §3, §4, §5, §6, §7
# Bromus sterilis = test: greenhouse pre-emergence treatment, BROST; details: BROST, 20 DAT; for pest or weed control at 62.5 g/ha: Bromus sterilis, 480 h
# Source text: as §1, §2, §3, §4, §5, §6, §7
# Helianthus annuus = test: greenhouse pre-emergence treatment, HELAN; details: HELAN, 20 DAT
# Source text: as §1, §2, §3, §4, §5, §6, §7
# Ambrosia elatior = test: greenhouse pre-emergence treatment, AMBEL
# Source text: as §1, §2, §3, §4, §5, §6, §7
# Galium aparine [2] = test: greenhouse post-emergence treatment, GALAP; details: Galium aparine, 480 h, Table X12, 20 DAT, GALAP, solo isoproturon (SC 500 g/l) 500 gai/ha
# Procedure, shortened: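 Scale 0–100 damage rating (100 = complete destruction of above-ground parts, 0 = normal growth), read 2 to 4 weeks after post-emergence application of aqueous spray liquor to plants 3–15 cm tall.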
# Setaria viridis = test: greenhouse pre-emergence treatment, SETVI; details: for % activity: SETVI
# Source text: as §1, §2, §3, §4, §5, §6, §7
# Echinocloa crus-galli = test: greenhouse post-emergence treatment, ECHCG; details: Table X12, 20 DAT, ECHCG, solo isoproturon (SC 500 g/l) 125 gai/ha
# Description: as §1
# For the post-emergence treatment, the test plants were grown to a plant height of from 3 to 15 cm, depending on the plant habit, and only then treated with the active compounds which had been suspended or emulsified in water. To this end, the test plants were either sown directly, and grown in the same containers, or they were first grown separately as seedlings and transplanted into the test containers a few days prior to treatment.
# as §3, §4, §5, §6, §7
# Poa annua = test: greenhouse pre-emergence treatment, POAAN; details: 20 DAT
# Source text: as §1, §2, §3, §4, §5, §6, §7
# Digitaria sanguinalis = test: greenhouse pre-emergence treatment, DIGSA; details: Digitaria sanguinalis, 480 h, 20 DAT
# Source text: as §1, §2, §3, §4, §5, §6, §7
# Apera spica-venti = test: greenhouse pre-emergence treatment, APESV; details: 20 DAT
# Source text: as §1, §2, §3, §4, §5, §6, §7
# Polygonum convolvulus = test: greenhouse pre-emergence treatment, POLCO; details: Fallopia convolvulus, 480 h, 20 DAT, saflufenacil solo 12.5 gai/ha
# Source text: as §1, §2, §3, §4, §5, §6, §7
# [3] = dimethenamid solo (EC 720 g/l), 62.5 gai/ha
# [4] = solo dimethenamid (EC 720 g/l) 62.5 gai/ha
# [5] = Table X13, 20 DAT, solo isoproturon (SC 500 g/l) 125 gai/ha
# [6] = solo quinmerac (WP 50%) 62.5 gai/ha
# [7] = solo quinmerac (WP 50%) 250 gai/ha
# [8] = solo saflufenacil (SC 342 g/l) 6.25 gai/ha, 20 DAT
# [9] = solo saflufenacil (SC 342 g/l) 25 gai/ha, 20 DAT
smiles,measurement,setting,value
COCC(C)N(C(=O)CCl)c1c(C)csc1C (stereo not drawn) [dimethenamid],pest or weed control at 62.5 g/ha,"Lolium multiflorum; dimethenamid solo (EC 720 g/l), 62.5 gai/ha, LOLMU",80%
same,% activity,"Alopecurus myosuroides; dimethenamid solo (EC 720 g/l), 125 gai/ha, 20 DAT",60%
same,% activity,"Alopecurus myosuroides; dimethenamid solo (EC 720 g/l), 250 gai/ha, 20 DAT",65%
same,% activity,"Stellaria media; dimethenamid solo (EC 720 g/l), 31.25 gai/ha",80%
same,% activity,Stellaria media; [3],90%
same,% activity,"Avena fatua; AVEFA, solo dimethenamid (EC 720 g/l) 62.5 gai/ha",10%
same,pest or weed control at 62.5 g/ha,"Avena fatua; Avena fatua, 480 h, dimethenamid solo (EC 720 g/l), 62.5 gai/ha, AVEFA",10%
same,pest or weed control at 125 g/ha,"Avena fatua; Avena fatua, 480 h, dimethenamid solo (EC 720 g/l), 125 gai/ha, AVEFA",50%
same,pest or weed control at 250 g/ha,"Avena fatua; Avena fatua, 480 h, dimethenamid solo (EC 720 g/l), 250 gai/ha, AVEFA",65%
same,% activity,Papaver rhoeas; [4],90%
same,% activity,Papaver rhoeas; [3],90%
same,% activity,"Papaver rhoeas; dimethenamid solo (EC 720 g/l), 125 gai/ha",90%
same,% activity,"Galium aparine [1]; GALAP, 20 DAT, solo dimethenamid (EC 720 g/l) 31.25 gai/ha",50%
same,% activity,"Galium aparine [1]; GALAP, 20 DAT, solo dimethenamid (EC 720 g/l) 62.5 gai/ha",60%
same,% activity,"Galium aparine [1]; GALAP, 20 DAT, solo dimethenamid (EC 720 g/l) 125 gai/ha",50%
same,pest or weed control at 31.25 g/ha,"Galium aparine [1]; Galium aparine, 480 h, dimethenamid solo (EC 720 g/l), 31.25 gai/ha, 20 DAT, GALAP",50%
same,pest or weed control at 62.5 g/ha,"Galium aparine [1]; Galium aparine, 480 h, dimethenamid solo (EC 720 g/l), 62.5 gai/ha, 20 DAT, GALAP",60%
same,pest or weed control at 125 g/ha,"Galium aparine [1]; Galium aparine, 480 h, dimethenamid solo (EC 720 g/l), 125 gai/ha, 20 DAT, GALAP",50%
same,pest or weed control at 31.25 g/ha,"Brachiaria decumbens; dimethenamid solo (EC 720 g/l), 31.25 gai/ha, BRADC",60%
same,% activity,Bromus sterilis; [4],80%
same,pest or weed control at 62.5 g/ha,Bromus sterilis; [3],80%
same,% activity,Helianthus annuus; solo dimethenamid (EC 720 g/l) 250 gai/ha,35%
same,plant injury at 250 g/ha,"Helianthus annuus; Helianthus annuus, 480 h, dimethenamid solo (EC 720 g/l), 250 gai/ha",35%
same,% activity,"Ambrosia elatior; AMBEL, 20 DAT, solo dimethenamid (EC 720 g/l) 125 gai/ha",20%
same,% activity,"Ambrosia elatior; AMBEL, 20 DAT, solo dimethenamid (EC 720 g/l) 250 gai/ha",30%
same,pest or weed control at 31.25 g/ha,"Ambrosia elatior; Ambrosia artemisiifolia, 480 h, AMBEL, 20 DAT, solo dimethenamid (EC 720 g/l) 31.25 gai/ha",0%
same,pest or weed control at 62.5 g/ha,"Ambrosia elatior; Ambrosia artemisiifolia, 480 h, AMBEL, 20 DAT, solo dimethenamid (EC 720 g/l) 62.5 gai/ha",0%
same,pest or weed control at 125 g/ha,"Ambrosia elatior; Ambrosia artemisiifolia, 480 h, dimethenamid solo (EC 720 g/l), 125 gai/ha, 20 DAT, AMBEL",20%
same,pest or weed control at 250 g/ha,"Ambrosia elatior; Ambrosia artemisiifolia, 480 h, dimethenamid solo (EC 720 g/l), 250 gai/ha, 20 DAT, AMBEL",30%
CC(C)c1ccc(NC(=O)N(C)C)cc1 [isoproturon],"pest or weed control at 500000 µg/mL, 500 g/ha",Galium aparine [2],30%
same,% activity,Alopecurus myosuroides; [5],0%
same,% activity,Setaria viridis; [5],0%
same,% activity,"Setaria viridis; Table X13, 20 DAT, solo isoproturon (SC 500 g/l) 500 gai/ha",75%
same,% activity,Echinocloa crus-galli,40%
Cc1cnc2c(C(=O)O)c(Cl)ccc2c1 [quinmerac],pest or weed control at 250 g/ha,"Lolium multiflorum; LOLMU, solo quinmerac (WP 50%) 250 gai/ha",0%
same,% activity,Poa annua; [6],0%
same,% activity,Poa annua; solo quinmerac (WP 50%) 125 gai/ha,0%
same,% activity,Poa annua; [7],0%
same,% activity,Stellaria media; [7],0%
same,pest or weed control at 31.25 g/ha,"Avena fatua; Avena fatua, 480 h, AVEFA, solo quinmerac (WP 50%) 31.25 gai/ha",0%
same,pest or weed control at 125 g/ha,"Avena fatua; Avena fatua, 480 h, AVEFA, solo quinmerac (WP 50%) 125 gai/ha",0%
same,% activity,Papaver rhoeas; [7],95%
same,pest or weed control at 31.25 g/ha,"Digitaria sanguinalis; DIGSA, solo quinmerac (WP 50%) 31.25 gai/ha",0%
same,pest or weed control at 62.5 g/ha,"Digitaria sanguinalis; DIGSA, solo quinmerac (WP 50%) 62.5 gai/ha",0%
same,pest or weed control at 125 g/ha,"Digitaria sanguinalis; DIGSA, solo quinmerac (WP 50%) 125 gai/ha",0%
same,% activity,Apera spica-venti; [6],0%
same,% activity,Apera spica-venti; [7],25%
same,pest or weed control at 125 g/ha,"Galium aparine [1]; Galium aparine, 480 h, GALAP, 20 DAT, solo quinmerac (WP 50%) 125 gai/ha",95%
same,pest or weed control at 62.5 g/ha,"Brachiaria decumbens; quinmerac solo (WP 50%), 62.5 gai/ha, BRADC",0%
same,pest or weed control at 125 g/ha,"Brachiaria decumbens; quinmerac solo (WP 50%), 125 gai/ha, BRADC",0%
same,pest or weed control at 250 g/ha,"Brachiaria decumbens; quinmerac solo (WP 50%), 250 gai/ha, BRADC",30%
same,pest or weed control at 62.5 g/ha,Bromus sterilis; [6],0%
same,plant injury at 125 g/ha,"Helianthus annuus; Helianthus annuus, 480 h, solo quinmerac (WP 50%) 125 gai/ha",0%
same,plant injury at 62.5 g/ha,"Helianthus annuus; Helianthus annuus, 480 h, quinmerac solo (WP 50%), 62.5 gai/ha",0%
same,pest or weed control at 250 g/ha,"Ambrosia elatior; Ambrosia artemisiifolia, 480 h, AMBEL, 20 DAT, solo quinmerac (WP 50%) 250 gai/ha",0%
CC(C)N(C)S(=O)(=O)NC(=O)c1cc(-n2c(=O)cc(C(F)(F)F)n(C)c2=O)c(F)cc1Cl [saflufenacil],inhibition at 6.25 g/ha,Lolium multiflorum; saflufenacil solo 6.25 gai/ha,10%
same,% activity,Alopecurus myosuroides; [8],0%
same,% activity,"Alopecurus myosuroides; solo saflufenacil (SC 342 g/l) 12.5 gai/ha, 20 DAT",0%
same,% activity,Alopecurus myosuroides; [9],0%
same,% activity,Setaria viridis; [8],25%
same,% activity,Setaria viridis; [9],65%
same,inhibition at 6.25 g/ha,"Setaria viridis; Setaria viridis, 480 h, 20 DAT, saflufenacil solo 6.25 gai/ha",25%
same,inhibition at 12.5 g/ha,"Setaria viridis; Setaria viridis, 480 h, 20 DAT, saflufenacil solo 12.5 gai/ha",40%
same,inhibition at 25 g/ha,"Setaria viridis; Setaria viridis, 480 h, 20 DAT, saflufenacil solo 25 gai/ha",65%
same,inhibition at 50 g/ha,"Setaria viridis; Setaria viridis, 480 h, 20 DAT, saflufenacil solo 50 gai/ha",90%
same,inhibition at 6.25 g/ha,"Avena fatua; Avena fatua, 480 h, saflufenacil solo 6.25 gai/ha",0%
same,inhibition at 6.25 g/ha,Digitaria sanguinalis; saflufenacil solo 6.25 gai/ha,10%
same,inhibition at 25 g/ha,Digitaria sanguinalis; saflufenacil solo 25 gai/ha,35%
same,"% herbicidal activity (weed control, 0-100 scale) at 12.5 g/ha","Galium aparine [1]; Galium aparine, 480 h, 20 DAT, saflufenacil solo 12.5 gai/ha",80%
same,pest or weed control at 30 g/ha,"Galium aparine [1]; Galium aparine, 480 h, Table X11, 20 DAT, GALAP, solo saflufenacil (title: flumioxazin, WG 51%) 30 gai/ha, read-out: % activity",65%
same,"% herbicidal activity (weed control, 0-100 scale) at 6.25 g/ha",Brachiaria decumbens; saflufenacil solo 6.25 gai/ha,10%
same,"% herbicidal activity (weed control, 0-100 scale) at 12.5 g/ha",Brachiaria decumbens; saflufenacil solo 12.5 gai/ha,20%
same,inhibition at 12.5 g/ha,Polygonum convolvulus,90%
same,"percent weed control (herbicidal activity, 0-100 scale) at 6.25 g/ha","Ambrosia elatior; Ambrosia artemisiifolia, 480 h, 20 DAT, saflufenacil solo 6.25 gai/ha",45%
same,pest or weed control at 3.75 g/ha,"Ambrosia elatior; Ambrosia artemisiifolia, 480 h, Table X11, 20 DAT, AMBEL, solo saflufenacil (title: flumioxazin, WG 51%) 3.75 gai/ha",0%
